Source: PMC6591251, “Discovery of potent necroptosis inhibitors targeting RIPK1 kinase activity for the treatment of inflammatory disorder and cancer metastasis” (Cell Death & Disease, 2019)

Columns and labels:
Test in all cases: RBC kinase panel
Assay type in all cases: biochemical
Conditions in all cases: ATP 10 μM, Data1, Data2
[1] = target: T1, GRK1 (Homo sapiens, UniProt Q15835)
T1 construct: purchased Reaction Biology Corporation
Method in brief: (§1)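 Kinases from a 369-member human panel were incubated with 1 μM compound under 10 μM ATP, and every assay was done in duplicate.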

[2] = target: T2, CDK9/cyclin K (Homo sapiens, UniProt P50750)
T2 construct: purchased Reaction Biology Corporation
Method in brief: as §1

[3] = target: T3, GRK6 (Homo sapiens, UniProt P43250)
T3 construct: purchased Reaction Biology Corporation
Method in brief: as §1

[4] = target: T4, TEC (Homo sapiens, UniProt P42680)
T4 construct: purchased Reaction Biology Corporation
Method in brief: as §1

[5] = target: T5, CHK2 (Homo sapiens, UniProt O96017)
T5 construct: purchased Reaction Biology Corporation
Method in brief: as §1

[6] = target: T6, HPK1/MAP4K1 (Homo sapiens, UniProt Q92918)
T6 construct: purchased Reaction Biology Corporation
Method in brief: as §1

[7] = target: T7, NEK1 (Homo sapiens, UniProt Q96PY6)
T7 construct: purchased Reaction Biology Corporation
Method in brief: as §1

[8] = target: T8, IRR/INSRR (Homo sapiens, UniProt P14616)
T8 construct: purchased Reaction Biology Corporation
Method in brief: as §1

[9] = target: T9, STK32B/YANK2 (Homo sapiens, UniProt Q9NY57)
T9 construct: purchased Reaction Biology Corporation
Method in brief: as §1

[10] = target: T10, ERK1 (Homo sapiens, UniProt P27361)
T10 construct: purchased Reaction Biology Corporation
Method in brief: as §1

[11] = target: T11, ALK3/BMPR1A (Homo sapiens, UniProt P36894)
T11 construct: purchased Reaction Biology Corporation
Method in brief: as §1

[12] = target: T12, CLK2 (Homo sapiens, UniProt P49760)
T12 construct: purchased Reaction Biology Corporation
Method in brief: as §1

[13] = target: T13, CDK2/Cyclin A1 (Homo sapiens, UniProt P24941)
T13 construct: purchased Reaction Biology Corporation
Method in brief: as §1

[14] = target: T14, FRK/PTK5 (Homo sapiens, UniProt P42685)
T14 construct: purchased Reaction Biology Corporation
Method in brief: as §1

[15] = target: T15, LCK2/ICK (Homo sapiens, UniProt Q9UPZ9)
T15 construct: purchased Reaction Biology Corporation
Method in brief: as §1

[16] = target: T16, DYRK1B (Homo sapiens, UniProt Q9Y463)
T16 construct: purchased Reaction Biology Corporation
Method in brief: as §1

[17] = target: T17, PHKg2 (Homo sapiens, UniProt P15735)
T17 construct: purchased Reaction Biology Corporation
Method in brief: as §1

[18] = target: T18, TXK (Homo sapiens, UniProt P42681)
T18 construct: purchased Reaction Biology Corporation
Method in brief: as §1

[19] = target: T19, TAK1 (Homo sapiens, UniProt O43318)
T19 construct: purchased Reaction Biology Corporation
Method in brief: as §1

[20] = target: T20, EPHB4 (Homo sapiens, UniProt P54760)
T20 construct: purchased Reaction Biology Corporation
Method in brief: as §1

[21] = target: T21, JAK2 (Homo sapiens, UniProt O60674)
T21 construct: purchased Reaction Biology Corporation
Method in brief: as §1

[22] = target: T22, MNK1 (Homo sapiens, UniProt Q9BUB5)
T22 construct: purchased Reaction Biology Corporation
Method in brief: as §1

[23] = target: T23, SIK3 (Homo sapiens, UniProt Q9Y2K2)
T23 construct: purchased Reaction Biology Corporation
Method in brief: as §1

[24] = target: T24, CAMK2b (Homo sapiens, UniProt Q13554)
T24 construct: purchased Reaction Biology Corporation
Method in brief: as §1

[25] = target: T25, KSR1 (Homo sapiens, UniProt Q8IVT5)
T25 construct: purchased Reaction Biology Corporation
Method in brief: as §1

[26] = target: T26, NEK11 (Homo sapiens, UniProt Q8NG66)
T26 construct: purchased Reaction Biology Corporation
Method in brief: as §1

[27] = target: T27, CAMK1g (Homo sapiens, UniProt Q96NX5)
T27 construct: purchased Reaction Biology Corporation
Method in brief: as §1

[28] = target: T28, BRSK1 (Homo sapiens, UniProt Q8TDC3)
T28 construct: purchased Reaction Biology Corporation
Method in brief: as §1

[29] = target: T29, SRMS (Homo sapiens, UniProt Q9H3Y6)
T29 construct: purchased Reaction Biology Corporation
Method in brief: as §1

[30] = target: T30, FYN (Homo sapiens, UniProt P06241)
T30 construct: purchased Reaction Biology Corporation
Method in brief: as §1

[31] = target: T31, CDK19/cyclin C (Homo sapiens, UniProt Q9BWU1)
T31 construct: purchased Reaction Biology Corporation
Method in brief: as §1

[32] = target: T32, CDK5/p35 (Homo sapiens, UniProt Q00535)
T32 construct: purchased Reaction Biology Corporation
Method in brief: as §1

[33] = target: T33, LOK/STK10 (Homo sapiens, UniProt O94804)
T33 construct: purchased Reaction Biology Corporation
Method in brief: as §1

T4 sequence (P42680 whole entry): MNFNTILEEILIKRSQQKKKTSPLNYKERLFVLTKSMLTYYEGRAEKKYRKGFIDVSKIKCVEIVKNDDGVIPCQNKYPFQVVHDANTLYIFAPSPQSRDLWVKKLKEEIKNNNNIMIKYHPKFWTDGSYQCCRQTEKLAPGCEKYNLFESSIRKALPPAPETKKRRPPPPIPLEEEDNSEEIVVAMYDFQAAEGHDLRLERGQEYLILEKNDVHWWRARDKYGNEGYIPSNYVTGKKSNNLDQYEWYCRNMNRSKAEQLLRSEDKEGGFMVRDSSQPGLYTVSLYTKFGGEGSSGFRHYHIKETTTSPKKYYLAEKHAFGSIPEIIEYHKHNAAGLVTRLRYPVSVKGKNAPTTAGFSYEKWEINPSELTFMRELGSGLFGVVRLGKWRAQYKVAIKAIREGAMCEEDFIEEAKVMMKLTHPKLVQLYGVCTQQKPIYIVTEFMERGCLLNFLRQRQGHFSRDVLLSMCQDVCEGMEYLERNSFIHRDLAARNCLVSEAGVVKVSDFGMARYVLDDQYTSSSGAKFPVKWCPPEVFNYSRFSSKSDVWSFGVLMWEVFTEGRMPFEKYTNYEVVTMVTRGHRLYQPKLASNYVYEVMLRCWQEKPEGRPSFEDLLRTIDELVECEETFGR
T10 sequence (P27361 whole entry): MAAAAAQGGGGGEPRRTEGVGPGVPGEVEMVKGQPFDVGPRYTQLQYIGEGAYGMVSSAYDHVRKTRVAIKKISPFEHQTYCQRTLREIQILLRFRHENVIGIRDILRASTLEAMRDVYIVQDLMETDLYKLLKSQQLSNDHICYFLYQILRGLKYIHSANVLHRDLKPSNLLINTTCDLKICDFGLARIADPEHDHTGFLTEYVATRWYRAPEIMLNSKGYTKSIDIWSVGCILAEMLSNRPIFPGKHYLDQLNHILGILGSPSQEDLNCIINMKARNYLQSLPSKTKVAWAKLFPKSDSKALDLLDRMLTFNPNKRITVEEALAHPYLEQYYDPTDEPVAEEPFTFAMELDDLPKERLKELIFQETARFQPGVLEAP
T7 sequence (Q96PY6 whole entry): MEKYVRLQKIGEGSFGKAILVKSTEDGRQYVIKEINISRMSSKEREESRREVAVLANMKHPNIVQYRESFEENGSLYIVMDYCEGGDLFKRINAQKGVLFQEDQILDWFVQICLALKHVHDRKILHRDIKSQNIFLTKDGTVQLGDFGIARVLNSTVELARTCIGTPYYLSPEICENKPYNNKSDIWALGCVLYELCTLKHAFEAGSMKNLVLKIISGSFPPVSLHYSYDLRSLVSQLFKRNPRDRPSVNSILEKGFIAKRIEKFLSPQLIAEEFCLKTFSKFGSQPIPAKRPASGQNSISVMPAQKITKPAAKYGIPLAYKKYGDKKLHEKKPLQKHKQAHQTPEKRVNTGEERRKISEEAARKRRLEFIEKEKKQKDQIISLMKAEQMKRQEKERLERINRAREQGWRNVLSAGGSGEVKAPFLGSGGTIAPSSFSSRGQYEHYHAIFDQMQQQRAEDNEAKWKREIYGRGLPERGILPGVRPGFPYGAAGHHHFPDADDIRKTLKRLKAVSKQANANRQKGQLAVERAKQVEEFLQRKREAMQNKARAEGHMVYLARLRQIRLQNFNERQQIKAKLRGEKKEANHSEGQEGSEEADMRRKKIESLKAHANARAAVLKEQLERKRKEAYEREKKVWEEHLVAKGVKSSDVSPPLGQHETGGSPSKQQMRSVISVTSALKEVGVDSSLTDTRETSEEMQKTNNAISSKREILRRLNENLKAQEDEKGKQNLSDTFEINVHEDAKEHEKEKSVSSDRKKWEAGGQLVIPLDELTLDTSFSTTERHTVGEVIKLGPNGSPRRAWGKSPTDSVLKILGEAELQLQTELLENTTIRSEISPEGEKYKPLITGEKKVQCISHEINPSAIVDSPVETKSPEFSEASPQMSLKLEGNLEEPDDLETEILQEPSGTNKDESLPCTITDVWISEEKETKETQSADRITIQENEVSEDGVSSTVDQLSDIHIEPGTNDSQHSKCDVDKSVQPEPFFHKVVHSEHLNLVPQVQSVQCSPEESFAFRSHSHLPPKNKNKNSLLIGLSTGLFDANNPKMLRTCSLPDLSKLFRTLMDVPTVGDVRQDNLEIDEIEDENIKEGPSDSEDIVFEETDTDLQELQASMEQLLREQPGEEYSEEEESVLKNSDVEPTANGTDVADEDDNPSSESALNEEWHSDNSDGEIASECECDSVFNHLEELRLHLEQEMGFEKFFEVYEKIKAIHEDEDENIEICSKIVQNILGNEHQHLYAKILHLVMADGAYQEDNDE
T32 sequence (Q00535 whole entry): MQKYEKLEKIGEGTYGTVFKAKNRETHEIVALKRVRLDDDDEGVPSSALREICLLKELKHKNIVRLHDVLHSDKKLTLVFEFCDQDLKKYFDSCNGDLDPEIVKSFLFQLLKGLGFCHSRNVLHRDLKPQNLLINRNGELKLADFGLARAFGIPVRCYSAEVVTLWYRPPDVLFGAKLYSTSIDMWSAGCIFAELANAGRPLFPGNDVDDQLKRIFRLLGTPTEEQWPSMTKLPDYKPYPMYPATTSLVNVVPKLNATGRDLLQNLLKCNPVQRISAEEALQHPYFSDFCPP
T32 sequence (Q15078 whole entry partner): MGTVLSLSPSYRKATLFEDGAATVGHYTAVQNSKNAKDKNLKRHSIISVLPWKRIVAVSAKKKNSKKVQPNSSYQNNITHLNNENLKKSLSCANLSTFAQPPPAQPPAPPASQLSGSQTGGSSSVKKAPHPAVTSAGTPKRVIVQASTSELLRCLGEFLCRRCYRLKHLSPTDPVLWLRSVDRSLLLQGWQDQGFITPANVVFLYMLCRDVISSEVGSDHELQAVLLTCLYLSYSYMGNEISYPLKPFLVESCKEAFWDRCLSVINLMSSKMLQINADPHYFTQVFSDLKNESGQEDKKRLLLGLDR
T27 sequence (Q96NX5 whole entry): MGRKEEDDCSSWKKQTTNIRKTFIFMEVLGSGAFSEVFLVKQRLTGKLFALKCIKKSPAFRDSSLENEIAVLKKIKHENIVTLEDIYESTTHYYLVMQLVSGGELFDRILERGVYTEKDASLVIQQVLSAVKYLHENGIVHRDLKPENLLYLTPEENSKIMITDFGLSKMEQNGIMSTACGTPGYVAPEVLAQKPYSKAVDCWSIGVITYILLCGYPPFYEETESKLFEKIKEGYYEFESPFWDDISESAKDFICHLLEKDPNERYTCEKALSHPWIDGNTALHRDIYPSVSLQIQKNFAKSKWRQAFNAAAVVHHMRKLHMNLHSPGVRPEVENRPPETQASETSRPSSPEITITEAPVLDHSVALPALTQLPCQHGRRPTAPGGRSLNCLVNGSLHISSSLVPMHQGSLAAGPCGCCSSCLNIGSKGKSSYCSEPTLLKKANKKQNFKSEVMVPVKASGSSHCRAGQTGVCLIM
T3 sequence (P43250 whole entry): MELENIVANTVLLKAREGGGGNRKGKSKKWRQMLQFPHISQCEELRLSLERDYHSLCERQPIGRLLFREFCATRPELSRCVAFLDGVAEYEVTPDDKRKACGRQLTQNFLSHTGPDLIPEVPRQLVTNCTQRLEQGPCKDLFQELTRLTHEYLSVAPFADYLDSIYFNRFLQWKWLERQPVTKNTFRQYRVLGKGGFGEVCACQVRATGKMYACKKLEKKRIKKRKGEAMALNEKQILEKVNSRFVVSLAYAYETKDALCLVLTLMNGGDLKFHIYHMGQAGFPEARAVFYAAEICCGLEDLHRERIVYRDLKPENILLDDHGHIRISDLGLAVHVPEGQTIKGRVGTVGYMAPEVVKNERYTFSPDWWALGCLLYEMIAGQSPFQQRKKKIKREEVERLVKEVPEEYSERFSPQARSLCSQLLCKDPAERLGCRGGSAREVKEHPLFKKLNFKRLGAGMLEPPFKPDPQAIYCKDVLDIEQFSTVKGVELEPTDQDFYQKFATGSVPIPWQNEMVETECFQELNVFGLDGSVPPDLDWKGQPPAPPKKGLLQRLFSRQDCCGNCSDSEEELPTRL
T18 sequence (P42681 whole entry): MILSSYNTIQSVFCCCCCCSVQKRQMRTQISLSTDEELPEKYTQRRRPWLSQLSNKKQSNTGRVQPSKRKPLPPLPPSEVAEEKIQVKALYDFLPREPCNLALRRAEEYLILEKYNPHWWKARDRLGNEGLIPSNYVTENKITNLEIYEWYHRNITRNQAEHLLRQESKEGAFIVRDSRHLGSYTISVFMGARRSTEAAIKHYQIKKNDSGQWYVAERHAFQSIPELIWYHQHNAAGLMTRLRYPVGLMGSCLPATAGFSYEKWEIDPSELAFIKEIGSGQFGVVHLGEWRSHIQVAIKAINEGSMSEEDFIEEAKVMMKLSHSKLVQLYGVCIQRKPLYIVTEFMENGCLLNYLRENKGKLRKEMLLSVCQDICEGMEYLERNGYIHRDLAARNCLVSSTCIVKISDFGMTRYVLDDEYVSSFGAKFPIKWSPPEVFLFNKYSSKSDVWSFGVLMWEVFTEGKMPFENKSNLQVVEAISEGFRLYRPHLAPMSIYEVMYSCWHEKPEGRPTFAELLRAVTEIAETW
T22 sequence (Q9BUB5 whole entry): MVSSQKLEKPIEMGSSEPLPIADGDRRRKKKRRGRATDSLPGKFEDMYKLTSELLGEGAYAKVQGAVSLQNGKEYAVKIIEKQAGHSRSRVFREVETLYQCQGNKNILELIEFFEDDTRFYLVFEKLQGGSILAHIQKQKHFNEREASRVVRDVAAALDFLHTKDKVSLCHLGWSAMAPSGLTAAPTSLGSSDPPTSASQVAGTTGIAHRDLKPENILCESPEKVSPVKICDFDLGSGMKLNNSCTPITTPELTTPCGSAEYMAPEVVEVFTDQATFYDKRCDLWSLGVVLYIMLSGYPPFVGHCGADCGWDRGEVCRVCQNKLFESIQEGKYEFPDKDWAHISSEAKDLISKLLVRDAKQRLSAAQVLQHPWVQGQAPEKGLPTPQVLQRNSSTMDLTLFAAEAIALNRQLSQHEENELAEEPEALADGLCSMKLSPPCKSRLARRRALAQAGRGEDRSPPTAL

## CC(=O)Nc1nc2ccc(-c3cnc(C)c(NC(=O)OC4CCCCC4)c3)cc2s1 [PK68, cyclohexyl (5-(2-acetamidobenzo[d]thiazol-6-yl)-2-methylpyridin-3-yl)carbamate]
[1]; 1 μM
  Activity%: 99.42%
[1]
  activity at 1 µM: 100%
[2]; 1 μM
  Activity%: 104.96%
[2]
  activity at 1 µM: 106%
[3]; 1 μM
  Activity%: 99.89%
[3]
  activity at 1 µM: 102%
[4]; 1 μM
  Activity%: 97.93%
[4]
  activity at 1 µM: 99%
[5]; 1 μM
  Activity%: 98.81%
[5]
  activity at 1 µM: 99.1%
[6]; 1 μM
  Activity%: 98.32%
[6]
  activity at 1 µM: 101%
[7]; 1 μM
  Activity%: 95.75%
[7]
  activity at 1 µM: 96%
[8]; 1 μM
  Activity%: 96.94%
[8]
  activity at 1 µM: 98%
[9]; 1 μM
  Activity%: 106.39%
[9]
  activity at 1 µM: 107%
[10]; 1 μM
  Activity%: 87.90%
[10]
  activity at 1 µM: 91.6%
[11]; 1 μM
  Activity%: 103.05%
[11]
  activity at 1 µM: 105%
[12]; 1 μM
  Activity%: 77.67%
[12]
  activity at 1 µM: 80.5%
[13]; 1 μM
  Activity%: 96.71%
[13]
  activity at 1 µM: 98.5%
[14]; 1 μM
  Activity%: 97.78%
[14]
  activity at 1 µM: 101%
[15]; 1 μM
  Activity%: 100.77%
[15]
  activity at 1 µM: 101%
[16]; 1 μM
  Activity%: 97.55%
[16]
  activity at 1 µM: 99.4%
[17]; 1 μM
  Activity%: 98.74%
[17]
  activity at 1 µM: 100%
[18]; 1 μM
  Activity%: 99.58%
[18]
  activity at 1 µM: 101%
[19]; 1 μM
  Activity%: 96.74%
[19]
  activity at 1 µM: 97.5%
[20]; 1 μM
  Activity%: 99.18%
[20]
  activity at 1 µM: 101%
[21]; 1 μM
  Activity%: 96.04%
[21]
  activity at 1 µM: 98.2%
[22]; 1 μM
  Activity%: 99.13%
[22]
  activity at 1 µM: 100%
[23]; 1 μM
  Activity%: 94.84%
[23]
  activity at 1 µM: 99.4%
[24]; 1 μM
  Activity%: 99.42%
[24]
  activity at 1 µM: 102%
[25]; 1 μM
  Activity%: 101.02%
[25]
  activity at 1 µM: 102%
[26]; 1 μM
  Activity%: 81.13%
[26]
  activity at 1 µM: 85.4%
[27]; 1 μM
  Activity%: 92.94%
[27]
  activity at 1 µM: 93%
[28]; 1 μM
  Activity%: 101.25%
[28]
  activity at 1 µM: 102%
[29]; 1 μM
  Activity%: 97.95%
[29]
  activity at 1 µM: 99.7%
[30]; 1 μM
  Activity%: 102.88%
[30]
  activity at 1 µM: 104%
[31]; 1 μM
  Activity%: 99.34%
[31]
  activity at 1 µM: 101%
[32]; 1 μM
  Activity%: 100.63%
[32]
  activity at 1 µM: 102%
[33]; 1 μM
  Activity%: 97.50%
[33]
  activity at 1 µM: 97.9%
